Structures can show the parent of a compound that is named as a salt.
Columns and labels:
[1] = target: T1, Recombinant human IKKβ (residues 1-737) (Homo sapiens, UniProt O14920); test: IKK2 assay (TR-FRET); type: biochemical; details: ATP 1 μM final, read-out: pIC50 against IKK2 (converted)
T1 construct: Recombinant human IKKβ (residues 1-737); GST (C); made in house
T1 sequence (O14920 1-737): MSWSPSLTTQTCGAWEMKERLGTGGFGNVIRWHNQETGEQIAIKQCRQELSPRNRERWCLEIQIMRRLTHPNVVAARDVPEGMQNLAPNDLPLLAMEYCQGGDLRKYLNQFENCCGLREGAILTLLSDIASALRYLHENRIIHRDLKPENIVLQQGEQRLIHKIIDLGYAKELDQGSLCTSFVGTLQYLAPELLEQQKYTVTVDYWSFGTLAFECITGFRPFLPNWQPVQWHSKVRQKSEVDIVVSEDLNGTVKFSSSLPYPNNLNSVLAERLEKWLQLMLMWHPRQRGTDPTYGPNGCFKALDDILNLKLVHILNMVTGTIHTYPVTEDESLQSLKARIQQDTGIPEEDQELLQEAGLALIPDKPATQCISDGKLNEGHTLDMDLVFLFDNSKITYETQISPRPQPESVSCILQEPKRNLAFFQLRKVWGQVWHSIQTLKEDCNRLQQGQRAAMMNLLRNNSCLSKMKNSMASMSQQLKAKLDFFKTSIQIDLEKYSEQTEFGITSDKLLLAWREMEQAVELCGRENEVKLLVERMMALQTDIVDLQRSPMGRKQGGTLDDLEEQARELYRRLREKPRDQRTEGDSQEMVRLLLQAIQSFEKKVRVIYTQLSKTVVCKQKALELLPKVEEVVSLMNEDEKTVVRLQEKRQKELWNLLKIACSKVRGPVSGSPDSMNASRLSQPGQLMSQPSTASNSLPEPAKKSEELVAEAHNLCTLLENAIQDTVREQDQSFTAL
Summary of the method: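 TR-FRET readout (665 nm over 620 nm Eu reference) of GST-IB Ser32/36 phosphorylation after 60 min detection. Reaction: 1 μM ATP, 25 nM substrate, 0.5-5 nM GST-fused IKKβ 1-737 from baculovirus, pH 7.4 HEPES buffer, 1.7% DMSO, 15 min room temperature, EDTA-terminated.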

[2] = system: human monocyte stimulated cytokine production (TNF-α); test: Monocyte assay (LPS-stimulated TNF-α production); type: cell-based; details: for inhibition at 0.3 µM: read-out: inhibition at 300 nM in the monocyte assay; for IC50: 24 h, 200 ng/mL LPS, TNF-α by ELISA
Summary of the method: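 TNF-α release was measured by ELISA after 24 hrs at 37 C. Cells were stimulated with 200 ng/mL E. coli LPS, with compound added 30 minutes beforehand (0.1% DMSO vehicle). Cells were Ficoll/MACS-isolated CD14+ human monocytes adhered at 1×10^6 cells/mL, and viability was checked by trypan blue.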

| Structure (SMILES) | IC50 [1] [µM] | inhibition at 0.3 µM [2] [%] | IC50 [2] [nM] |
| --- | --- | --- | --- |
| CC(C)S(=O)(=O)N1CCC(c2c[nH]c3c(C(N)=O)cc(-c4csc(CN5CCC[C@@H]5C(N)=O)c4)cc23)CC1 [Example 429, 5-(5-{[(2R)-2-(aminocarbonyl)-1-pyrrolidinyl]methyl}-3-thienyl)-3-[1-[(1-methylethyl)sulfonyl]-4-piperidinyl]-1H-indole-7-carboxamide] | ≤ 10 | 0 to 60 | – |
| CCS(=O)(=O)N1CCC(c2c[nH]c3c(C(N)=O)cc(-c4cc(CN[C@@H](C)C(C)C)ccc4F)cc23)CC1 [Example 337, 5-[5-({[(1S)-1,2-dimethylpropyl]amino}methyl)-2-fluorophenyl]-3-[1-(ethylsulfonyl)-4-piperidinyl]-1H-indole-7-carboxamide trifluoroacetate] | ≤ 10 | – | ≤ 1500 |
| CCS(=O)(=O)N1CCC(c2c[nH]c3c(C(N)=O)cc(-c4cccc(CNC(=O)c5ccc(F)cc5)c4)cc23)CC1 [Example 360, 3-[1-(ethylsulfonyl)-4-piperidinyl]-5-[3-({[(4-fluorophenyl)carbonyl]amino}methyl)phenyl]-1H-indole-7-carboxamide trifluoroacetate] | ≤ 10 | – | > 1000 |
| CCS(=O)(=O)N1CCC(c2c[nH]c3c(C(N)=O)cc(-c4csc(CN(C)C)c4)cc23)CC1 [Example 111, 5-{5-[(dimethylamino)methyl]-3-thienyl}-3-[1-(ethylsulfonyl)-4-piperidinyl]-1H-indole-7-carboxamide trifluoroacetate] | ≤ 10 | – | ≤ 1500 |
| CCS(=O)(=O)N1CCC(c2c[nH]c3c(C(N)=O)cc(-c4cncc(CNCC(C)C)c4)cc23)CC1 [Example 180, 3-[1-(ethylsulfonyl)-4-piperidinyl]-5-(5-{[(2-methylpropyl)amino]methyl}-3-pyridinyl)-1H-indole-7-carboxamide] | ≤ 10 | 0 to 60 | – |
| CCS(=O)(=O)N1CCC(c2c[nH]c3c(C(N)=O)cc(-c4ccc(CNC5CCC5)cc4)cc23)CC1 [Example 144, 5-{4-[(cyclobutylamino)methyl]phenyl}-3-[1-(ethylsulfonyl)-4-piperidinyl]-1H-indole-7-carboxamide] | ≤ 10 | – | ≤ 1500 |
| CCS(=O)(=O)N1CCC(c2c[nH]c3c(C(N)=O)cc(-c4cccc(CNC(=O)C5CCC5)c4)cc23)CC1 [Example 367, 5-(3-{[(cyclobutylcarbonyl)amino]methyl}phenyl)-3-[1-(ethylsulfonyl)-4-piperidinyl]-1H-indole-7-carboxamide] | ≤ 10 | – | ≤ 1500 |
| CCS(=O)(=O)N1CCC(c2c[nH]c3c(C(N)=O)cc(-c4cccc(CNS(=O)(=O)C5CC5)c4)cc23)CC1 [Example 369, 5-(3-{[(cyclopropylsulfonyl)amino]methyl}phenyl)-3-[1-(ethylsulfonyl)-4-piperidinyl]-1H-indole-7-carboxamide] | ≤ 10 | – | ≤ 1500 |
| CCS(=O)(=O)N1CCC(c2c[nH]c3c(C(N)=O)cc(-c4csc(CNCC(F)(F)F)n4)cc23)CC1 [Example 40, 3-[1-(ethylsulfonyl)-4-piperidinyl]-5-(2-{[(2,2,2-trifluoroethyl)amino]methyl}-1,3-thiazol-4-yl)-1H-indole-7-carboxamide trifluoroacetate] | ≤ 10 | 0 to 60 | – |
| CCS(=O)(=O)N1CCC(c2c[nH]c3c(C(N)=O)cc(-c4cccc(C(C)NCC(C)C)c4)cc23)CC1 (centres unmarked) [Example 294, 3-[1-(ethylsulfonyl)-4-piperidinyl]-5-(3-{1-[(2-methylpropyl)amino]ethyl}phenyl)-1H-indole-7-carboxamide trifluoroacetate] | ≤ 10 | – | ≤ 1500 |
| CCS(=O)(=O)N1CCC(c2c[nH]c3c(C(N)=O)cc(-c4cccc(CNC(=O)C5CCCC5)c4)cc23)CC1 [Example 362, 5-(3-{[(cyclopentylcarbonyl)amino]methyl}phenyl)-3-[1-(ethylsulfonyl)-4-piperidinyl]-1H-indole-7-carboxamide trifluoroacetate] | ≤ 10 | – | > 1000 |
| CCS(=O)(=O)N1CCC(c2c[nH]c3c(C(N)=O)cc(-c4ccc(OC)c(CN5CCCC5)c4)cc23)CC1 [Example 262, 3-[1-(ethylsulfonyl)-4-piperidinyl]-5-[4-(methyloxy)-3-(1-pyrrolidinylmethyl)phenyl]-1H-indole-7-carboxamide trifluoroacetate] | ≤ 10 | – | > 1000 |
| CCS(=O)(=O)N1CCC(c2c[nH]c3c(C(N)=O)cc(-c4csc(CN(C)C(C)c5cccs5)c4)cc23)CC1 (centres unmarked) [Example 81, 3-[1-(ethylsulfonyl)-4-piperidinyl]-5-[5-({methyl[1-(2-thienyl)ethyl]amino}methyl)-3-thienyl]-1H-indole-7-carboxamide trifluoroacetate] | ≤ 10 | 0 to 60 | – |
| CCS(=O)(=O)N1CCC(c2c[nH]c3c(C(N)=O)cc(-c4csc(CN5CCCC5C(C)C)c4)cc23)CC1 (centres unmarked) [Example 94, 3-[1-(ethylsulfonyl)-4-piperidinyl]-5-(5-{[2-(1-methylethyl)-1-pyrrolidinyl]methyl}-3-thienyl)-1H-indole-7-carboxamide] | ≤ 10 | 0 to 60 | – |
| CCS(=O)(=O)N1CCC(c2c[nH]c3c(C(N)=O)cc(-c4cccc(CNC[C@H]5CCCO5)c4)cc23)CC1 [Example 306, 3-[1-(ethylsulfonyl)-4-piperidinyl]-5-[3-({[(2R)-tetrahydro-2-furanylmethyl]amino}methyl)phenyl]-1H-indole-7-carboxamide trifluoroacetate] | ≤ 10 | – | ≤ 1500 |
| CCN(C)Cc1cccc(-c2cc(C(N)=O)c3[nH]cc(C4CCN(S(=O)(=O)CC)CC4)c3c2)c1 [Example 13, 5-(3-{[ethyl(methyl)amino]methyl}phenyl)-3-[1-(ethylsulfonyl)-4-piperidinyl]-1H-indole-7-carboxamide] | ≤ 10 | – | ≤ 1500 |
| CCS(=O)(=O)N1CCC(c2c[nH]c3c(C(N)=O)cc(-c4ccc5c(c4)CNCC5)cc23)CC1 [Example 37, 3-[1-(ethylsulfonyl)-4-piperidinyl]-5-(1,2,3,4-tetrahydro-7-isoquinolinyl)-1H-indole-7-carboxamide trifluoroacetate] | ≤ 10 | – | ≤ 1500 |
| CCS(=O)(=O)N1CCC(c2c[nH]c3c(C(N)=O)cc(-c4cc(F)cc(CNCC5CCCC5)c4)cc23)CC1 [Example 323, 5-(3-{[(cyclopentylmethyl)amino]methyl}-5-fluorophenyl)-3-[1-(ethylsulfonyl)-4-piperidinyl]-1H-indole-7-carboxamide trifluoroacetate] | ≤ 10 | – | ≤ 1500 |
| CCS(=O)(=O)N1CCC(c2c[nH]c3c(C(N)=O)cc(-c4cccc(CN(C)CCS(C)(=O)=O)c4)cc23)CC1 [Example 4, 3-[1-(ethylsulfonyl)-4-piperidinyl]-5-[3-({methyl[2-(methylsulfonyl)ethyl]amino}methyl)phenyl]-1H-indole-7-carboxamide] | ≤ 10 | – | > 1000 |
| CCS(=O)(=O)N1CCC(c2c[nH]c3c(C(N)=O)cc(-c4csc(CN5CCCC5C(C)(C)C)c4)cc23)CC1 (centres unmarked) [Example 91, 5-(5-{[2-(1,1-dimethylethyl)-1-pyrrolidinyl]methyl}-3-thienyl)-3-[1-(ethylsulfonyl)-4-piperidinyl]-1H-indole-7-carboxamide trifluoroacetate] | ≤ 10 | 0 to 60 | – |
| CCS(=O)(=O)N1CCC(c2c[nH]c3c(C(N)=O)cc(-c4cccc(CNC(=O)c5cc6ccccc6s5)c4)cc23)CC1 [Example 363, 5-(3-{[(1-benzothien-2-ylcarbonyl)amino]methyl}phenyl)-3-[1-(ethylsulfonyl)-4-piperidinyl]-1H-indole-7-carboxamide] | ≤ 10 | – | > 1000 |
| CCS(=O)(=O)N1CCC(c2c[nH]c3c(C(N)=O)cc(-c4csc(C(C(C)C)N5CCCC5)c4)cc23)CC1 (centres unmarked) [Example 250, 3-[1-(ethylsulfonyl)-4-piperidinyl]-5-{5-[2-methyl-1-(1-pyrrolidinyl)propyl]-3-thienyl}-1H-indole-7-carboxamide trifluoroacetate] | ≤ 10 | – | ≤ 1500 |

From patent US8063071B2 (GlaxoSmithKline, LLC, priority 2007, dated 2011)
